For one data set, the target named is T1, Psy-Lig (Psychromonas sp. SP041, UniProt A0ACD6BAT9).
T1 construct: mature protein, 40-residue periplasmic leader removed (cleavage Ala40/Gln41), 257 residues; N-terminal His tag and TEV site, vector pHMGWA, expressed in E. coli; pre-adenylated with ATP; SeMet form crystallised
The experiment in a line: X-ray crystal structure, […] Å (SeMet protein). To be noted: covalent; phosphoamide bond to Lys25 side chain (mature numbering), enzyme-adenylate intermediate formed from ATP; active site. The format is binding.

Substrate in data set [1]: Nc1ncnc2c1ncn2[C@@H]1O[C@H](COP(=O)(O)OP(=O)(O)OP(=O)(O)O)[C@@H](O)[C@H]1O
As to the kind of experiment: molecular beacon fluorescence nick-sealing assay, Michaelis-Menten fit. Type of data set: biochemical, Psychromonas sp. SP041. To be noted: 300 nM nicked ds-DNA beacon, 2.0 nM enzyme, 10 mM MgCl2, 100 mM NaCl, 1 mM DTT, 50 mM Tris pH 8.0, 30 °C, ATP 0-50 µM.

The results in this text go back to paper PMC4220977, “Enzyme–adenylate structure of a bacterial ATP-dependent DNA ligase with a minimized DNA-binding surface” (Acta Crystallographica Section D: Biological Crystallography, 2014).

What is called Km is the concentration of substrate that gives half-maximal velocity.

On to `Nc1ncnc2c1ncn2[C@@H]1O[C@H](COP(=O)(O)O)[C@@H](O)[C@H]1O` [AMP], for which the “X-ray crystal structure, 1.65 Å (SeMet protein)” value at Psy-Lig is “AMP bound in the active site was clear in the observed electron density, covalently linked”.

B1: Psy-Lig (Psychromonas sp. SP041) (protein)
chain: QPPPIQLATNYRQDIDVTQYYVSEKLDGIRAYWNGHQLISKQGNIFTAPTWFIASFPTTAMDGELWIARQQFETVSGIARTQDNQNEQWKQIKFMIFDLPKSTVSFEQRINKMQTLVTDTNSPYLQMIEQQKIPNTVALFDLLNKVVMGKGEGLMLHHQDALYQTKRSRDLMKLKKFEDAEATVIAYLPGKGKYEGLLGAILVKNEEGVTFKIGSGFSDEERSTPPPIGSLITYRFTGKTNNNIPRFASFVRIRVIY
notes: mature protein, 40-residue periplasmic leader removed (cleavage Ala40/Gln41), 257 residues; N-terminal His tag and TEV site, vector pHMGWA, expressed in E. coli; pre-adenylated with ATP; SeMet form crystallised
Turning to B1, the Km in data set [1] stood at 3.8 ± 0.7 µM.
